Assay results published in patent US9821067B2, “Lipopeptides for delivery of nucleic acids” (Marina Biotech, Inc., priority 2007, dated 2017).
Primed or numbered codes have the meaning given here. No end group written: not given here. C20 = lipophilic group with a 20-carbon chain; PEG27′ = polyethylene glycol, 27 units; cysteamide = C-terminal cysteamide; C16 = N-terminal C16 lipid; C18 = N-terminal C18 lipid; C18″ = C18 lipid

How the values were obtained:
[1] = tested on: LacZ gene (bacterial galactosidase) in 9L/LacZ cells; test: In vitro assay for LacZ gene expression knockdown in 9L cells
Experimental: 9L/LacZ is a rat gliosarcoma cell line stably expressing the LacZ gene that encodes bacterial galactosidase. LacZ gene knockdown measurements can be used as a primary activity-based in vitro assay for interfering RNA delivery formulations.
For LacZ gene knockdown measurements, 9L/LacZ cells were transfected with an RNAi formulation, and a β-galactosidase assay was performed on cells harvested at day 3 post transfection. An additional assay was performed to quantify protein concentration.
9L/LacZ cells were plated at 8000 cells/well (96-well) and incubated overnight in medium. Confluency was about 15-20% at the time of transfection. Transfection complex was prepared by adding an interfering RNA to OptiMEM™ medium and vortexing, separately adding a delivery formulation to OptiMEM™ medium and vortexing, and finally mixing the interfering RNA in medium with the delivery formulation in medium to make the transfection complex. The medium for incubated cells was replaced with fresh no-serum media (OptiMEM™ without serum) and transfection complex was added to each well. Cells were incubated 5 hrs, then after the addition of 100 microliters complete medium (DMEM plus 10% fetal bovine serum) were incubated overnight at 37° C. and 5% CO2. The next day, 24 hours after transfection, the medium was changed to fresh complete medium and the cells were incubated another 48 hrs at 37° C. and 5% CO2.
For LacZ gene knockdown, the harvested 9L/LacZ cells were washed in PBS, lysed in M-PER™ Reagent (Pierce), and incubated at room temperature for 15 minutes. Lysate was taken from each well for protein assay with a Micro BCA kit (Pierce, Thermo Fisher Scientific) and β-gal assay with All-in-One™ β-Galactosidase Assay Reagent (Pierce).

[2] = tested on: Cyclophilin B (PPIB) gene expression in A549 cells; test: In vitro assay for PPIB gene expression knockdown in A549 cells; assay type: cell-based, human; settings: for % KD (vs QNeg) A549/PPIB: A549 cells, PPIB mRNA by RT-PCR 24 hours after transfection; for knockdown in the A549/PPIB assay: as compared to both Qneg and vehicle (data for vehicle not shown)
Experimental: Cyclophilin B (PPIB) gene expression knockdown was measured in A549 human alveolar basal epithelial cells. For PPIB gene knockdown measurements, A549 cells were transfected with an interfering RNA formulation, total RNA prepared 24 hours after transfection, and PPIB mRNA assayed by RT-PCR. QRT-PCR of 36B4 (acidic ribosomal phosphoprotein PO) mRNA expression was performed for normalization.
Confluency was about 50% at the time of transfection.
For PPIB gene knockdown cells were lysed and RNA prepared (Invisorb RNA Cell HTS 96-Kit/C, Invitek, Berlin, or RNeasy 96 Kit, Qiagen). Quantitative RT-PCR was performed using One-Step qRT-PCR kit (Invitrogen) on a DNA Engine Opticon2 thermal cycler (BioRad).

[3] = N:P ratio 2, β-galactosidase assay day 3 post transfection
[4] = N:P ratio 4, β-galactosidase assay day 3 post transfection

Substance	% KD (vs QNeg) L/9lacZ [1, 3] [%]	% KD (vs QNeg) L/9lacZ [1, 4] [%]	% KD (vs QNeg) A549/PPIB ([2]; N:P ratio 2) [%]	% KD (vs QNeg) A549/PPIB ([2]; N:P ratio 4) [%]	knockdown in the A549/PPIB assay [2]
Ac-GALFLGFLGAAGSTMGAWSQPKSKRKV-amide (Ac-GALFLGFLGAAGSTMGAWSQPKSKRKV-NH2) [acetylated peptide amide]	−0.4	−1.6	−8.1	−3.7	–
(C20)-(H)8(R)8(H)8K-NH-(C20) (C20-HHHHHHHHRRRRRRRRHHHHHHHHK(C20)) [lipopeptide with two 20 carbon lipophilic groups]	60.1	57.5	29.7	65.8	significant knockdown
Ac-GALFLAFLAAALSLMGLWSQPKKKRKV-Cysteamide (Ac-GALFLAFLAAALSLMGLWSQPKKKRKV-cysteamide) [acetylated peptide cysteamide]	29.1	–	20.5	–	–
(C18)-HHHHHKHHHKKKHKHKKK-cysteamide (C18-HHHHHKHHHKKKHKHKKK-cysteamide) [lipopeptide with C18 lipophilic group]	−11.3	−19.4	25.5	21.6	significant knockdown
(C18)-HHHHRRRRRRRR-Cysteamide (C18-HHHHRRRRRRRR-cysteamide) [lipopeptide; (CX) is the number of carbons in the lipophilic group]	−0.8	–	15.3	–	–
Ac-LIRLWSHLIHIWFQNRRLKWKKK-amide (Ac-LIRLWSHLIHIWFQNRRLKWKKK-NH2) [acetylated peptide amide]	−19.9	−4.5	8.7	−28.8	–
(C18)-PEG27-HHHHHHHHRRRRRRRR-amide ({C18″-PEG27′}-HHHHHHHHRRRRRRRR-NH2) [lipopeptide with C18 lipophilic group and PEG27]	9.2	−16.1	30.6	7.4	–
(C16)-HHHHHKHHHKKKHKHKKK-Cysteamide (C16-HHHHHKHHHKKKHKHKKK-cysteamide) [lipopeptide with C16 lipophilic group]	12.0	12.4	14.7	−19.8	–
Ac-GALFLAFLAAALSLMGLWSQPKSKRKV-Cysteamide (Ac-GALFLAFLAAALSLMGLWSQPKSKRKV-cysteamide) [acetylated peptide cysteamide]	29.5	−9.3	15.5	16.0	–
